According to patent publication US12570675B2, “Boronic acid compounds” (LG CHEM, LTD., priority 2020, dated 2026):

molecular target: Proteasome chymotrypsin-like activity (S26 protein from RPMI8226 cells) (Homo sapiens, UniProt P28074); type: biochemical; conditions: S26 protein from RPMI8226 cell extract 2 ug/well, substrate 20 uM, 37° C., 90 minutes; read-out: Proteasome chymotrypsin-like activity inhibition IC50
Summary of the method: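 RPMI8226 myeloma cell lysate (S26 fraction, 20 mM Tris-HCl pH 8.0; 2 ug/well) incubated with compound serially diluted from 10 uM (0.5% DMSO) and 20 uM Suc-LLVY-AMC (chymotrypsin-like) or Z-LLE-AMC (caspase-like) for 90 min at 37 °C. Fluorescence read; IC50 from % of uninhibited signal.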

Chain of Proteasome chymotrypsin-like activity (S26 protein from RPMI8226 cells) (P28074 60-263 limits assumed): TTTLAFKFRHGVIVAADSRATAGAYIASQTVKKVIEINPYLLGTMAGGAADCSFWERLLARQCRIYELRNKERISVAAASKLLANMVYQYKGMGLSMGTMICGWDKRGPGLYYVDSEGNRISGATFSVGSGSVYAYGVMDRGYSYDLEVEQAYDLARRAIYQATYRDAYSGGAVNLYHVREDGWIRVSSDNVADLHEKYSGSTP

`Cc1cccc(CC2(C(=O)N[C@@H](CC(C)C)B(O)O)CC(CNC(=O)c3ccnn3C(C)C)=NO2)c1` (stereo partly drawn) [Example 242, ((1R)-1-(3-((1-isopropyl-1H-pyrazol-5-carboxamido)methyl)-5-(3-methylbenzyl)-4,5-dihydroisoxazol-5-carboxamido)-3-methylbutyl)boronic acid] and `CC(C)C[C@H](NC(=O)C1(Cc2cccc(Cl)c2)CC(CNC(=O)c2ccnn2C(C)C)=NO1)B(O)O` (stereo partly drawn) [Example 250, ((1R)-1-(5-(3-chlorobenzyl)-3-((1-isopropyl-1H-pyrazol-5-carboxamido)methyl)-4,5-dihydroisoxazol-5-carboxamido)-3-methylbutyl)boronic acid] cannot be ordered by IC50: under 10 nM for the first, under 10 nM for the second.

`Cc1cccc(CC2(C(=O)N[C@@H](CC(C)C)B(O)O)CC(CNC(=O)c3cc(C)nn3C3CCCC3)=NO2)c1` (stereo partly drawn) [Example 243, ((1R)-1-(3-((1-cyclopentyl-3-methyl-1H-pyrazol-5-carboxamido)methyl)-5-(3-methylbenzyl)-4,5-dihydroisoxazol-5-carboxamido)-3-methylbutyl)boronic acid] and `Cc1cccc(CC2(C(=O)N[C@@H](CC(C)C)B(O)O)CC(CNC(=O)c3cc(C)nn3C3CCOCC3)=NO2)c1` (stereo partly drawn) [Example 251, ((1R)-3-methyl-1-(3-((3-methyl-1-(tetrahydro-2H-pyran-4-yl)-1H-pyrazol-5-carboxamido)methyl)-5-(3-methylbenzyl)-4,5-dihydroisoxazol-5-carboxamido)butyl)boronic acid] cannot be ordered by IC50: under 10 nM for the first, under 10 nM for the second.

`Cc1cccc(CC2(C(=O)N[C@@H](CC(C)C)B(O)O)CC(CNC(=O)c3c(Cl)c(C)nn3C(C)C)=NO2)c1` (stereo partly drawn) [Example 244, ((1R)-1-(3-((4-chloro-1-isopropyl-3-methyl-1H-pyrazol-5-carboxamido)methyl)-5-(3-methylbenzyl)-4,5-dihydroisoxazol-5-carboxamido)-3-methylbutyl)boronic acid] and `Cc1nn(C(C)C)c(C(=O)NCC2=NOC(Cc3cccc(Cl)c3)(C(=O)N[C@@H](CC(C)C)B(O)O)C2)c1Cl` (stereo partly drawn) [Example 248, ((1R)-1-(3-((4-chloro-1-isopropyl-3-methyl-1H-pyrazol-5-carboxamido)methyl)-5-(3-chlorobenzyl)-4,5-dihydroisoxazol-5-carboxamido)-3-methylbutyl)boronic acid] cannot be ordered by IC50: under 10 nM for the first, under 10 nM for the second.

`Cc1cccc(CC2(C(=O)N[C@@H](CC(C)C)B(O)O)CC(CNC(=O)c3cc(-c4ccccn4)nn3C(C)C)=NO2)c1` (stereo partly drawn) [Example 245, ((1R)-1-(3-((1-isopropyl-3-(pyridin-2-yl)-1H-pyrazol-5-carboxamido)methyl)-5-(3-methylbenzyl)-4,5-dihydroisoxazol-5-carboxamido)-3-methylbutyl)boronic acid] and `CC(C)C[C@H](NC(=O)C1(Cc2cccc(Cl)c2)CC(CNC(=O)c2cc(-c3ccccc3)nn2C(C)C)=NO1)B(O)O` (stereo partly drawn) [Example 249, ((1R)-1-(5-(3-chlorobenzyl)-3-((1-isopropyl-3-phenyl-1H-pyrazol-5-carboxamido)methyl)-4,5-dihydroisoxazol-5-carboxamido)-3-methylbutyl)boronic acid] cannot be ordered by IC50: under 10 nM for the first, under 10 nM for the second.

`CC(C)C[C@H](NC(=O)C1(Cc2ccccc2)CC(CCNC(=O)c2nccc3ccccc23)=NO1)B(O)O` (stereo partly shown) [Example 253] and `CC(C)C[C@H](NC(=O)C1(Cc2ccccc2)CC(COc2ccc3ccccc3c2)=NO1)B(O)O` (stereo partly shown) [Example 262] cannot be ordered by IC50: under 10 nM for the first, under 100 nM for the second.

`CC(C)C[C@H](NC(=O)C1(Cc2ccccc2)CC(COc2ccccc2)=NO1)B(O)O` (stereo partly shown) [Example 254] and `CC(C)C[C@H](NC(=O)C1(Cc2ccccc2)CC(COc2cccc(Cl)c2)=NO1)B(O)O` (stereo partly shown) [Example 258] cannot be ordered by IC50: under 10 nM for the first, under 10 nM for the second.

`O=C(N[C@@H](Cc1ccccc1)B(O)O)C1(Cc2ccccc2)CC(COc2ccccc2)=NO1` (stereo partly drawn) [Example 255, ((1R)-1-(5-benzyl-3-(phenoxymethyl)-4,5-dihydroisoxazol-5-carboxamido)-2-phenylethyl)boronic acid] and `O=C(N[C@@H](Cc1ccccc1)B(O)O)C1(Cc2ccccc2)CC(COc2cccc(Cl)c2)=NO1` (stereo partly drawn) [Example 259, ((1R)-1-(5-benzyl-3-((3-chlorophenoxy)methyl)-4,5-dihydroisoxazol-5-carboxamido)-2-phenylethyl)boronic acid] cannot be ordered by IC50: under 25 nM for the first, under 50 nM for the second.

`CC(C)C[C@H](NC(=O)C1(Cc2ccccc2)CC(COCc2cccc(Cl)c2)=NO1)B(O)O` (stereo partly shown) [Example 260] and `Cc1cccc(COCC2=NOC(Cc3ccccc3)(C(=O)N[C@@H](CC(C)C)B(O)O)C2)c1` (stereo partly shown) [Example 270] cannot be ordered by IC50: under 50 nM for the first, under 10 nM for the second.

`O=C(N[C@@H](Cc1ccccc1)B(O)O)C1(Cc2ccccc2)CC(COCc2cccc(Cl)c2)=NO1` (stereo partly drawn) [Example 261, ((1R)-1-(5-benzyl-3-(((3-chlorobenzyl)oxy)methyl)-4,5-dihydroisoxazol-5-carboxamido)-2-phenylethyl)boronic acid] and `Cc1cccc(COCC2=NOC(Cc3ccccc3)(C(=O)N[C@@H](Cc3ccccc3)B(O)O)C2)c1` (stereo partly drawn) [Example 271, ((1R)-1-(5-benzyl-3-(((3-methylbenzyl)oxy)methyl)-4,5-dihydroisoxazol-5-carboxamido)-2-phenylethyl)boronic acid] cannot be ordered by IC50: under 25 nM for the first, under 10 nM for the second.

`O=C(N[C@@H](Cc1ccccc1)B(O)O)C1(Cc2ccccc2)CC(COc2ccc3ccccc3c2)=NO1` (stereo partly drawn) [Example 263, ((1R)-1-(5-benzyl-3-((naphthalen-2-yloxy)methyl)-4,5-dihydroisoxazol-5-carboxamido)-2-phenylethyl)boronic acid] and `O=C(N[C@@H](Cc1ccccc1)B(O)O)C1(Cc2ccccc2)CC(COCc2ccccn2)=NO1` (stereo partly drawn) [Example 269, ((1R)-1-(5-benzyl-3-((pyridin-2-ylmethoxy)methyl)-4,5-dihydroisoxazol-5-carboxamido)-2-phenylethyl)boronic acid] cannot be ordered by IC50: under 50 nM for the first, under 25 nM for the second.

`CC(C)C[C@H](NC(=O)C1(Cc2ccccc2)CC(COCc2cccc(C#N)c2)=NO1)B(O)O` (stereo partly shown) [Example 264] and `COc1cccc(COCC2=NOC(Cc3ccccc3)(C(=O)N[C@@H](CC(C)C)B(O)O)C2)c1` (stereo partly shown) [Example 272] cannot be ordered by IC50: under 10 nM for the first, under 10 nM for the second.

`N#Cc1cccc(COCC2=NOC(Cc3ccccc3)(C(=O)N[C@@H](Cc3ccccc3)B(O)O)C2)c1` (stereo partly drawn) [Example 265, ((1R)-1-(5-benzyl-3-(((3-cyanobenzyl)oxy)methyl)-4,5-dihydroisoxazol-5-carboxamido)-2-phenylethyl)boronic acid] and `COc1cccc(COCC2=NOC(Cc3ccccc3)(C(=O)N[C@@H](Cc3ccccc3)B(O)O)C2)c1` (stereo partly drawn) [Example 273, ((1R)-1-(5-benzyl-3-(((3-methoxybenzyl)oxy)methyl)-4,5-dihydroisoxazol-5-carboxamido)-2-phenylethyl)boronic acid] cannot be ordered by IC50: under 10 nM for the first, under 10 nM for the second.

`CC(C)C[C@H](NC(=O)C1(Cc2ccccc2)CC(COCc2cccn3ccnc23)=NO1)B(O)O` (stereo partly shown) [Example 266] and `CC(C)C[C@H](NC(=O)C1(Cc2ccccc2)CC(COCc2ccccn2)=NO1)B(O)O` (stereo partly shown) [Example 268] cannot be ordered by IC50: under 10 nM for the first, under 10 nM for the second.

`O=C(N[C@@H](Cc1ccccc1)B(O)O)C1(Cc2ccccc2)CC(COCc2cccn3ccnc23)=NO1` (stereo partly drawn) [Example 267, ((1R)-1-(5-benzyl-3-((imidazo[1,2-a]pyridin-8-ylmethoxy)methyl)-4,5-dihydroisoxazol-5-carboxamido)-2-phenylethyl)boronic acid] and `COc1ccc(COCC2=NOC(Cc3ccccc3)(C(=O)N[C@@H](CC(C)C)B(O)O)C2)cc1` (stereo partly shown) [Example 274] cannot be ordered by IC50: under 10 nM for the first, under 100 nM for the second.
